Measured values as given in PubChem BioAssay (NCI).
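96-well plates; 48 h exposure; 5 concentrations. Endpoints by linear interpolation between flanking doses. Not reached: highest tested concentration assigned. TGI denotes the concentration required for complete inhibition of growth.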

Experiments:
Experiment in all cases: NCI tumour cell line growth inhibition, 48 h
[1] = system: ACHN renal
[2] = system: HCT-15 colon
[3] = system: RPMI-8226 leukemia
[4] = system: HL-60(TB) leukemia
[5] = system: MOLT-4 leukemia
[6] = system: COLO 205 colon
[7] = system: HOP-92 NSCLC
[8] = system: NCI-H23 lung
[9] = system: HT29 colon
[10] = system: T-47D breast
[11] = system: UO-31 renal
[12] = system: U251 CNS
[13] = system: MDA-MB-231 breast
[14] = system: IGROV1 ovarian
[15] = system: SK-MEL-5 melanoma
[16] = system: A498 renal
[17] = system: SK-OV-3 ovarian
[18] = system: SR leukemia
[19] = system: SNB-75 CNS

| SMILES | TGI [1] [µM] | TGI [2] [µM] | TGI [3] [µM] | TGI [4] [µM] | TGI [5] [µM] | TGI [6] [µM] | TGI [7] [µM] | TGI [8] [µM] | TGI [9] [µM] | TGI [10] [µM] | TGI [11] [µM] | TGI [12] [µM] | TGI [13] [µM] | TGI [14] [µM] | TGI [15] [µM] | TGI [16] [µM] | TGI [17] [µM] | TGI [18] [µM] | TGI [19] [µM] |
| --- | --- | --- | --- | --- | --- | --- | --- | --- | --- | --- | --- | --- | --- | --- | --- | --- | --- | --- | --- |
| CC1=[N+]([O-])C(C)(C)N(N=O)C1(C)C | > 10 | > 10 | > 10 | > 10 | > 10 | > 10 | > 10 | > 10 | > 10 | > 10 | > 10 | > 10 | > 10 | – | – | – | – | – | – |
| CC1(C)O[C@H]([C@H](O)c2nnc3ccc(Cl)nn23)[C@@H]([C@H]2COC(C)(C)O2)O1 | > 100 | > 100 | > 100 | > 100 | > 100 | > 100 | – | > 100 | > 100 | > 100 | – | > 100 | > 100 | > 100 | > 100 | > 100 | > 100 | – | – |
| Cc1nn2c(=O)c([N+](=O)[O-])c(/C=C/c3ccco3)nc2s1 | > 100 | > 100 | > 100 | 96.2 | > 100 | > 100 | > 100 | > 100 | > 100 | > 100 | > 100 | > 100 | > 100 | > 100 | 90.1 | – | > 100 | 79.2 | > 100 |
| Cc1ccc(-c2cc(-c3ccc(Cl)cc3)nc(/N=C3\C(=O)N(CN4CCOCC4)c4ccccc43)n2)cc1 | 63.8 | > 100 | – | 26.3 | 35.8 | 79.8 | 62.7 | 46 | 65.1 | > 100 | – | 77 | > 100 | 39.3 | 36.1 | 38.9 | > 100 | – | 70.2 |
| C=CC(CBr)CCC(Br)C(C)(C)Br (centres undefined) | > 10 | > 10 | > 10 | – | > 10 | > 10 | > 10 | > 10 | > 10 | > 10 | > 10 | > 10 | > 10 | > 10 | > 10 | > 10 | > 10 | – | > 10 |
| C=C(C)CNC(=S)N(N)c1ccc(OC)cc1 | > 100 | 56.8 | > 100 | > 100 | > 100 | > 100 | > 100 | > 100 | > 100 | > 100 | > 100 | > 100 | > 100 | > 100 | > 100 | – | > 100 | > 100 | > 100 |
| COc1c(C)c2c(c3c1c(=O)c1ccccc1n3C)C=CC(C)(C)O2 | 56.3 | > 100 | 76.8 | 30.2 | 67.8 | 99.1 | 88.8 | > 100 | 81.5 | – | 66 | 53.8 | – | > 100 | 31.1 | 73.4 | 43.1 | 58.6 | 62.8 |
